In US20180244611A1, “Modulators of the Cystic Fibrosis Transmembrane Conductance Regulator Protein and Methods of Use” (AbbVie S.à.r.l., priority 2017, published 2018):

Key:
F508delCFTR [1] = biological target: T1, F508delCFTR (Homo sapiens, UniProt P13569, DEL508-508); experiment: Cell Surface Expression-Horse Radish Peroxidase (CSE-HRP) assay, test compound with co-corrector; format: cell-based; settings: for Maximum % activity (with co-corrector): maximum at any tested concentration;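 as to Maximum % activity (with co-corrector): percent of 2 µM positive control corrector over DMSO; co-corrector is that same compound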
T1 construct: expressed in transfected cells; host or cells: CFBE41o- human lung-derived epithelial cells (CFBE41o-F508delCFTR-HRP), doxycycline-inducible
T1 sequence (P13569 with tags, fused parts or gaps DEL508-508): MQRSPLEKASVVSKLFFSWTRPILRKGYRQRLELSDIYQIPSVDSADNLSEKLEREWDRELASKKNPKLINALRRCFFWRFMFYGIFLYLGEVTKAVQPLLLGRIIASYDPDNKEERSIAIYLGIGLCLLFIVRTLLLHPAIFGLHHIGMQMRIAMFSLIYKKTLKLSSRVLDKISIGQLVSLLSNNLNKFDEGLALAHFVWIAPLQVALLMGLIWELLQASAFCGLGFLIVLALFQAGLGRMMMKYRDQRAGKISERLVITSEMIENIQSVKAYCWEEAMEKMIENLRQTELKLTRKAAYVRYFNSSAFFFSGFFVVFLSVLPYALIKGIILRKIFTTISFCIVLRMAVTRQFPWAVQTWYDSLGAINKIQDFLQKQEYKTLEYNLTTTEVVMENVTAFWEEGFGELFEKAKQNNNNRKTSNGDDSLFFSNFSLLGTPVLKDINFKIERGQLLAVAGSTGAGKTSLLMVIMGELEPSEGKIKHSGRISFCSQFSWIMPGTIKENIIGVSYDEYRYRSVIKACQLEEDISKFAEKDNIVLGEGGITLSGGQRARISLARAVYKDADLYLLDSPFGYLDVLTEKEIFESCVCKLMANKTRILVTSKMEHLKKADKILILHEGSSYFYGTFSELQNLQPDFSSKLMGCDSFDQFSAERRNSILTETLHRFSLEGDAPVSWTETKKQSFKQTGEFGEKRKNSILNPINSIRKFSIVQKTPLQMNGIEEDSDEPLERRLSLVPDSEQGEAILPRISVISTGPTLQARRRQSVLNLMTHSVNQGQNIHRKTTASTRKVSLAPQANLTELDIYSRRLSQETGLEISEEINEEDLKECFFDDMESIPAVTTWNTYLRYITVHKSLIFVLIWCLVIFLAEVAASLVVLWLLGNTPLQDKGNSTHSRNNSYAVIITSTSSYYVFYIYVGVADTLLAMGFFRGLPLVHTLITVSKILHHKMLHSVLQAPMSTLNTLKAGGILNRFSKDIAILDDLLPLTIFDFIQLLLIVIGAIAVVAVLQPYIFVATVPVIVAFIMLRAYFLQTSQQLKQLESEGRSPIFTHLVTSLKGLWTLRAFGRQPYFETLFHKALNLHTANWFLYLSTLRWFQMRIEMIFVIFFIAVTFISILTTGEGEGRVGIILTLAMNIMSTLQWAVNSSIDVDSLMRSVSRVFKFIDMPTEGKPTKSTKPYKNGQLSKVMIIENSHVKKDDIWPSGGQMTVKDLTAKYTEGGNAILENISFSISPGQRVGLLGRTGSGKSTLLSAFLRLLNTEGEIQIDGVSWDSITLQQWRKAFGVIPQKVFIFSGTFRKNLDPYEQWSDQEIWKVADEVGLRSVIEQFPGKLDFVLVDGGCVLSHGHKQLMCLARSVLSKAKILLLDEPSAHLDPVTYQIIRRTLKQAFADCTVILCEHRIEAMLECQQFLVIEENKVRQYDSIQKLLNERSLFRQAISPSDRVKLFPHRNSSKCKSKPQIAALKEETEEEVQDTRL
Procedure, shortened: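 Surface-expression read-out: luminol luminescence from an HRP tag in the fourth exofacial loop of F508delCFTR, in doxycycline-induced (0.5 μg/mL, 72 h) CFBE41o- cells. Compound plus 2 μM co-corrector added for 18-24 h at 33° C., 8-point 3-fold series up to 20 μM. EC50 from a sigmoidal fit with variable Hill slope, normalised to positive control, triplicate plates.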

F508delCFTR [2] = biological target: T1, F508delCFTR; experiment: Cell Surface Expression-Horse Radish Peroxidase (CSE-HRP) assay, test compound without co-corrector; format: cell-based; settings: for Emax: maximum at any tested concentration, without co-corrector; for EC50: test compound without co-corrector;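 as to Emax: percent of on-plate 2 µM positive control corrector response over DMSO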
Procedure, shortened: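 Compound without co-corrector was tested at eight 3-fold concentrations, top 20 μM, for 18-24 h at 33° C on doxycycline-induced (0.5 μg/mL, 72 h) CFBE41o- F508delCFTR-HRP cells. After DPBS washes, luminol luminescence gave % activity relative to on-plate positive control minus DMSO; EC50 came from triplicate-plate sigmoidal fitting.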

[3] = normalized to positive control, with 2 μM co-corrector
[4] = CSE-HRP assay, test compound with 2 μM co-corrector
[5] = normalized to on-plate positive control, with 2 μM co-corrector
[6] = normalized to on-plate positive control

Row | SMILES | Maximum % activity (with co-corrector) (F508delCFTR [1]; [3]) | EC50 (F508delCFTR [1]; with 2 μM co-corrector) [µM] | Emax (F508delCFTR [2]; normalized to positive control) [%] | EC50 (F508delCFTR [2]) [µM] | EC50 (F508delCFTR [1]; [4]) [µM] | Maximum % activity (with co-corrector) (F508delCFTR [1]; [5]) | EC50 (F508delCFTR [2]; CSE-HRP assay) [µM] | Emax (F508delCFTR [2]; [6]) [%]
1 | COc1cccc2c1[C@@H](C(=O)NS(=O)(=O)c1cccc3ncccc13)CC2(C)C [Example I-153, (1S)-7-methoxy-3,3-dimethyl-N-(quinoline-5-sulfonyl)-2,3-dihydro-1H-indene-1-carboxamide] | +++ (≥350) | < 3 | ≥ 150 | 3 to 10 |  |  |  | 
2 | COc1cccc2c1[C@H](C(=O)NS(=O)(=O)c1cccc3ncccc13)CC2(C)C [Example I-154, (1R)-7-methoxy-3,3-dimethyl-N-(quinoline-5-sulfonyl)-2,3-dihydro-1H-indene-1-carboxamide] | +++ (≥350) | < 3 | ≥ 150 | 3 to 10 |  |  |  | 
3 | COc1ccc(C2CCC2)c2c1[C@H](C(=O)NS(=O)(=O)c1cccc3ncc(C)n13)C2 [Example I-155, (7R)-2-cyclobutyl-5-methoxy-N-(3-methylimidazo[1,2-a]pyridine-5-sulfonyl)bicyclo[4.2.0]octa-1,3,5-triene-7-carboxamide] | +++ (≥350) | < 3 | ≥ 150 | 3 to 10 |  |  |  | 
4 | Cc1ccccc1S(=O)(=O)NC(=O)C1CCc2c(Cl)cccc21 (centres unmarked) [Example II-3, 4-chloro-N-(2-methylbenzene-1-sulfonyl)-2,3-dihydro-1H-indene-1-carboxamide] | +++ (≥350) | 3 to 10 | 50 to 150 | 3 to 10 |  |  |  | 
5 | Cc1ccccc1S(=O)(=O)NC(=O)C1CCc2c(-c3ccccc3)cccc21 (centres unmarked) [Example II-36, N-(2-methylbenzene-1-sulfonyl)-4-phenyl-2,3-dihydro-1H-indene-1-carboxamide] | +++ (≥350) | 3 to 10 | 50 to 150 | 3 to 10 |  |  |  | 
6 | O=C(NS(=O)(=O)c1cccc2ccccc12)C1(CN2CCCC2)CCc2c(Cl)cccc21 (centres unmarked) [Example II-47, 4-chloro-N-(naphthalene-1-sulfonyl)-1-[(pyrrolidin-1-yl)methyl]-2,3-dihydro-1H-indene-1-carboxamide] | ++ (≥150 and <350) | 3 to 10 | < 50 | 3 to 10 |  |  |  | 
7 | CCC1(C(=O)NS(=O)(=O)N2CCCc3ccccc32)CCc2c(Cl)cccc21 (centres unmarked) [Example II-80, 4-chloro-N-(3,4-dihydroquinoline-1(2H)-sulfonyl)-1-ethyl-2,3-dihydro-1H-indene-1-carboxamide] | + (<150) | ≥ 10 | < 50 | ≥ 10 |  |  |  | 
8 | O=C(NS(=O)(=O)c1cccc2ccccc12)C1(CO)CCc2c(Cl)cccc21 (centres unmarked) [Example II-81, 4-chloro-1-(hydroxymethyl)-N-(naphthalene-1-sulfonyl)-2,3-dihydro-1H-indene-1-carboxamide] | +++ (≥350) | < 3 | 50 to 150 | 3 to 10 |  |  |  | 
9 | COc1cccc2c1C(C(=O)NS(=O)(=O)c1cccc3ccccc13)CCC2 (centres unmarked) [Example II-115, 8-methoxy-N-(naphthalene-1-sulfonyl)-1,2,3,4-tetrahydronaphthalene-1-carboxamide] | +++ (≥350) | < 3 | ≥ 150 | 3 to 10 |  |  |  | 
10 | O=C(NS(=O)(=O)c1cccc2ccccc12)C1CCCc2c(Cl)ccc(O)c21 (centres unmarked) [Example II-128, 5-chloro-8-hydroxy-N-(naphthalene-1-sulfonyl)-1,2,3,4-tetrahydronaphthalene-1-carboxamide] | +++ (≥350) | 3 to 10 | 50 to 150 | 3 to 10 |  |  |  | 
11 | O=C(NS(=O)(=O)c1cccc2ccccc12)C1(CCN2CCCC2)CCc2c(Cl)cccc21 (centres unmarked) [Example III-111, 4-chloro-N-(naphthalene-1-sulfonyl)-1-[2-(pyrrolidin-1-yl)ethyl]-2,3-dihydro-1H-indene-1-carboxamide] |  |  |  |  | 3 to 10 | + (<150) | ≥ 10 | < 50
12 | COCCN(C)CCC1(C(=O)NS(=O)(=O)c2cccc3ccccc23)CCc2c(Cl)cccc21 (centres unmarked) [Example III-112, 4-chloro-1-{2-[(2-methoxyethyl)(methyl)amino]ethyl}-N-(naphthalene-1-sulfonyl)-2,3-dihydro-1H-indene-1-carboxamide] |  |  |  |  | 3 to 10 | ++ (≥150 and <350) | 3 to 10 | < 50
13 | CCC1(C(=O)N(C)S(=O)(=O)c2cccc3ccccc23)CCc2c(Cl)cccc21 (centres unmarked) [Example III-150, 4-chloro-1-ethyl-N-methyl-N-(naphthalene-1-sulfonyl)-2,3-dihydro-1H-indene-1-carboxamide] |  |  |  |  | ≥ 10 | + (<150) | ≥ 10 | < 50
14 | COCC1(C(=O)NS(=O)(=O)c2cccc3ccccc23)CCc2c(Cl)cccc21 (centres unmarked) [Example III-151, 4-chloro-1-(methoxymethyl)-N-(naphthalene-1-sulfonyl)-2,3-dihydro-1H-indene-1-carboxamide] |  |  |  |  | ≥ 10 | + (<150) | ≥ 10 | < 50
15 | N#CCC1(C(=O)NS(=O)(=O)c2cccc3ccccc23)CCc2c(Cl)cccc21 (centres unmarked) [Example III-155, 4-chloro-1-(cyanomethyl)-N-(naphthalene-1-sulfonyl)-2,3-dihydro-1H-indene-1-carboxamide] |  |  |  |  | 3 to 10 | ++ (≥150 and <350) | 3 to 10 | < 50
16 | N#CC1(C(=O)NS(=O)(=O)c2cccc3ccccc23)CCCc2cccc(Cl)c21 (centres unmarked) [Example III-157, 8-chloro-1-cyano-N-(naphthalene-1-sulfonyl)-1,2,3,4-tetrahydronaphthalene-1-carboxamide] |  |  |  |  | 3 to 10 | ++ (≥150 and <350) | ≥ 10 | < 50

Row | SMILES | Maximum % activity (with co-corrector) (F508delCFTR [1]; [3]) | EC50 (F508delCFTR [1]; with 2 μM co-corrector) [µM] | Emax (F508delCFTR [2]; normalized to positive control) [%] | EC50 (F508delCFTR [2]) [µM] | EC50 (F508delCFTR [1]; [4]) [µM] | Maximum % activity (with co-corrector) (F508delCFTR [1]; [5]) | EC50 (F508delCFTR [2]; CSE-HRP assay) [µM] | Emax (F508delCFTR [2]; [6]) [%]
17 | CC1(C(=O)NS(=O)(=O)c2ccccc2)CCc2c(Cl)cccc21 (centres unmarked) [II-1] | +++ (≥350) | 3 to 10 | 50 to 150 | 3 to 10 |  |  |  | 
18 | Cc1ccccc1S(=O)(=O)NC(=O)[C@@]1(C)CCc2ccc(Cl)cc21 [II-4] | ++ (≥150 and <350) | 3 to 10 | < 50 | 3 to 10 |  |  |  | 
19 | Cc1ccccc1S(=O)(=O)NC(=O)[C@]1(C)CCc2ccc(Cl)cc21 [II-5] | ++ (≥150 and <350) | < 3 | < 50 | 3 to 10 |  |  |  | 
20 | O=C(NS(=O)(=O)c1ccccc1Cl)C1CCc2c(Cl)cccc21 (centres unmarked) [II-6] | ++ (≥150 and <350) | 3 to 10 | 50 to 150 | 3 to 10 |  |  |  | 
21 | Cc1ccccc1S(=O)(=O)NC(=O)C1CCCc2ccccc21 (centres unmarked) [II-7] | ++ (≥150 and <350) | 3 to 10 | < 50 | 3 to 10 |  |  |  | 
22 | COc1cccc2c1CCCC2C(=O)NS(=O)(=O)c1ccccc1C (centres unmarked) [II-8] | ++ (≥150 and <350) | 3 to 10 | 50 to 150 | 3 to 10 |  |  |  | 
23 | COc1ccc2c(c1OC)CCCC2C(=O)NS(=O)(=O)c1ccccc1C (centres unmarked) [II-9] | ++ (≥150 and <350) | 3 to 10 | < 50 | ≥ 10 |  |  |  | 
24 | Cc1ccccc1S(=O)(=O)NC(=O)C1CCCc2cccc(Cl)c21 (centres unmarked) [II-10] | ++ (≥150 and <350) | 3 to 10 | 50 to 150 | 3 to 10 |  |  |  | 
25 | Cc1ccccc1S(=O)(=O)NC(=O)C1CCc2ccccc21 (centres unmarked) [II-11] | + (<150) | 3 to 10 | < 50 | ≥ 10 |  |  |  | 
26 | Cc1ccccc1S(=O)(=O)NC(=O)C1CCCc2cc(F)ccc21 (centres unmarked) [II-12] | ++ (≥150 and <350) | 3 to 10 | < 50 | 3 to 10 |  |  |  | 
27 | COc1cccc2c1CCC[C@H]2C(=O)NS(=O)(=O)c1ccccc1C [II-13] | +++ (≥350) | 3 to 10 | 50 to 150 | 3 to 10 |  |  |  | 
28 | Cc1ccccc1S(=O)(=O)NC(=O)[C@H]1CCCc2ccccc21 [II-14] | ++ (≥150 and <350) | 3 to 10 | < 50 | 3 to 10 |  |  |  | 
29 | COc1cc2c(cc1OC)C(C(=O)NS(=O)(=O)c1ccccc1C)CCC2 (centres unmarked) [II-15] | + (<150) | 3 to 10 | < 50 | ≥ 10 |  |  |  | 
30 | COc1cccc2c1CC(C(=O)NS(=O)(=O)c1ccccc1C)C2 (centres unmarked) [II-16] | ++ (≥150 and <350) | 3 to 10 | < 50 | 3 to 10 |  |  |  | 
31 | Cc1ccccc1S(=O)(=O)NC(=O)[C@@H]1CCCc2ccccc21 [II-17] | ++ (≥150 and <350) | 3 to 10 | < 50 | 3 to 10 |  |  |  | 
32 | COc1ccc2c(c1)[C@@](C)(C(=O)NS(=O)(=O)c1ccccc1C)CC2 [II-18] | ++ (≥150 and <350) | 3 to 10 | < 50 | 3 to 10 |  |  |  | 
